Inhibition and Ki data for 34 compounds are collected here from patent publication US8653075B2, “Therapeutic methods employing substituted piperidines which are CCR3 antagonists” (Boehringer Ingelheim International GmbH, priority 2009, dated 2014).

The experiment has as its target T1, human chemokine receptor CCR3 (Homo sapiens, UniProt P51677).
T1 construct: expressed in transfected cells; host or cells: K562 cell line (hCCR3-C1 cells), membrane preparation
T1 sequence (P51677 1-355): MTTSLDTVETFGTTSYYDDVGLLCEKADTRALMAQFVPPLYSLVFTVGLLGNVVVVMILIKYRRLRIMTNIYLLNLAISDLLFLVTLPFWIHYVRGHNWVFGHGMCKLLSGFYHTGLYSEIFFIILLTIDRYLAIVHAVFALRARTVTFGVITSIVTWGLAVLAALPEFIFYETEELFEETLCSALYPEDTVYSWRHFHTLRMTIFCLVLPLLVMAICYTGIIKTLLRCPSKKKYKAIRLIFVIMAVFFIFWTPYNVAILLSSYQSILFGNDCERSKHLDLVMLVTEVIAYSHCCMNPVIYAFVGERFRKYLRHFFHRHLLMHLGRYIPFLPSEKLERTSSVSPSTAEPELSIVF
In words: CCR3 receptor binding assay (SPA, 125I-eotaxin-1 displacement, hCCR3-C1 K562 cell membranes). The settings on record: human Eotaxin-1 at human CCR3-Rezeptor; for inhibition at 1 µM: 1 μM test compound, read-out: CCR3 % inh @ 1 μM; for Ki: dose range 0.1 to 10000 nM. Put shortly: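 SPA displacement of recombinant human 125I-eotaxin-1 (30.000 dpm per well) from membranes of CCR3-transfected K562 cells (0.5-10 μg protein/well) on WGA beads. Buffer was 25 mM HEPES, 25 mM MgCl2, 1 mM CaCl2, 0.1% BSA; incubation 2 h at room temperature. Specific binding was total minus NSB (unlabelled eotaxin-1), giving % inhibition and Ki.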

With `Cc1cc(NC(=O)[C@H]2CCC(=O)N2C2CCN(Cc3ccc(Cl)c(C)c3)CC2)cc(C(=O)N(C)CCO)c1` [Example 175], the inhibition at 1 µM was determined as 99% and the Ki (as a rule, a dissociation constant, usually derived from enzyme kinetics or from competition with a known ligand) was 6 nM.
With `Cc1cc(CN2CCC(N3C(=O)CC[C@@H]3C(=O)Nc3cc(F)cc(C(=O)N(C)C)c3)CC2)ccc1Cl` [Example 176], the inhibition at 1 µM is 100% and the Ki worked out at 11 nM.
For `CNC(=O)c1cc(F)cc(NC(=O)[C@H]2CCC(=O)N2C2CCN(Cc3ccc(Cl)c(C)c3)CC2)c1` [Example 177], in that order: 97% and 24 nM.
Regarding `COc1ccc(NC(=O)[C@H]2CCC(=O)N2C2CCN(Cc3ccc(Cl)c(C)c3)CC2)cc1C(=O)N(C)CCO` [Example 178], the inhibition at 1 µM was found to be 86% and the inhibitory constant (Ki) was determined as 108 nM.
In the case of `COc1ccc(NC(=O)[C@H]2CCC(=O)N2C2CCN(Cc3ccc(Cl)c(C)c3)CC2)cc1C(=O)N(C)C` [Example 179], the inhibition at 1 µM amounted to 95% and the Ki was 34 nM.
`CNC(=O)c1cc(NC(=O)[C@H]2CCC(=O)N2C2CCN(Cc3ccc(Cl)c(C)c3)CC2)ccc1OC` [Example 180]: the inhibition at 1 µM was 97% and the Ki was found to be 16 nM.
As for `Cc1cc(CN2CCC(N3C(=O)CC[C@@H]3C(=O)Nc3cc(C(=O)N(C)C)cc(C(C)C)n3)CC2)ccc1Cl` [Example 182], the inhibition at 1 µM stood at 99% and the Ki was found to be 4 nM.
Consider `COc1cc(C(=O)N(C)C)cc(NC(=O)[C@H]2CCC(=O)N2C2CCN(Cc3ccc(Cl)c(C)c3)CC2)n1` [Example 183], for which the inhibition at 1 µM was 75% and the affinity corresponds to a Ki of 232 nM.
As for `CCc1cc(C(=O)N(C)C)cc(NC(=O)[C@H]2CCC(=O)N2C2CCN(Cc3ccc(Cl)c(C)c3)CC2)n1` [Example 184], the inhibition at 1 µM turned out to be 100% and the Ki is 8 nM.
As to `Cc1cc(CN2CCC(N3C(=O)CC[C@@H]3C(=O)Nc3cc(C(=O)N(C)C)cc(-c4nnnn4C)c3)CC2)ccc1Cl` [Example 185], the inhibition at 1 µM is 98% and the Ki was 1 nM.
Turning to `Cc1cc(CN2CCC(N3C(=O)CC[C@@H]3C(=O)Nc3cc(C(=O)N(C)CCO)cc(-c4nnnn4C)c3)CC2)ccc1Cl` [Example 186], the inhibition at 1 µM is 99% and affinity was put at a Ki of 1 nM.
The matching figures for `Cc1cc(CN2CCC(N3C(=O)CC[C@@H]3C(=O)Nc3nc(C(C)C)c(C(=O)N(C)C)s3)CC2)ccc1Cl` [Example 189]: 100% and 4 nM.
As for `CNC(=O)c1sc(NC(=O)[C@H]2CCC(=O)N2C2CCN(Cc3ccc(Cl)c(C)c3)CC2)nc1C` [Example 190], the inhibition at 1 µM worked out at 100% and the Ki came to 6 nM.
As for `Cc1cc(CN2CCC(N3C(=O)CCC3C(=O)Nc3cc(-c4c(C)noc4C)ccn3)CC2)ccc1Cl` (stereo not shown) [Example 192], the inhibition at 1 µM amounted to 96%.
Compound `Cc1cc(CN2CCC(N3C(=O)CC[C@@H]3C(=O)Nc3cc(-c4c(C)noc4C)ccn3)CC2)ccc1Cl` [Example 192] returned a Ki of 6 nM.
On to `Cc1cc(-c2noc(C)n2)cc(NC(=O)[C@H]2CCC(=O)N2C2CCN(Cc3ccc(Cl)c(C)c3)CC2)n1` [Example 193], for which the inhibition at 1 µM turned out to be 99% and the inhibition constant (Ki) was found to be 19 nM.
With `Cc1cc(-c2nnnn2C)cc(NC(=O)[C@H]2CCC(=O)N2C2CCN(Cc3ccc(Cl)c(C)c3)CC2)n1` [Example 196], the inhibition at 1 µM was determined as 89% and the Ki was 95 nM.
For the compound `CN1C[C@H](C(=O)Nc2cc(C3CC3)nn2C)N(C2CCN(Cc3ccc(OC(F)(F)F)c(F)c3)CC2)C1=O` [Example 197], the inhibition at 1 µM is 44% and affinity was put at a Ki of 1250 nM.
Turning to `CN1C[C@H](C(=O)Nc2cc(C3CC3)nn2C)N(C2CCN(Cc3ccc(Cl)c(Cl)c3)CC2)C1=O` [Example 198], the inhibition at 1 µM was 91% and the Ki turned out to be 67 nM.
The matching figures for `CN1C[C@H](C(=O)Nc2cc(C3CC3)nn2C)N(C2CCN(Cc3ccc(Cl)c(C(F)(F)F)c3)CC2)C1=O` [Example 199]: 66% and 453 nM.
For `CNC(=O)c1cccc(NC(=O)[C@H]2CCC(=O)N2C2CCN(Cc3ccc(Br)cc3)CC2)c1` [Example 200], in that order: 86% and 114 nM.
As for `CNC(=O)c1cccc(NC(=O)[C@H]2CCC(=O)N2C2CCN(Cc3ccc(Cl)cc3)CC2)c1` [Example 201], the inhibition at 1 µM is 86% and the affinity, expressed as Ki, was 119 nM.
As to `CNC(=O)c1cccc(NC(=O)[C@H]2CCC(=O)N2C2CCN(Cc3ccc(F)cc3)CC2)c1` [Example 202], the inhibition at 1 µM worked out at 69% and the Ki was 390 nM.
The matching figures for `CNC(=O)c1cccc(NC(=O)[C@H]2CCC(=O)N2C2CCN(Cc3ccc(F)c(Cl)c3)CC2)c1` [Example 203]: 75% and 237 nM.
Regarding `CNC(=O)c1cccc(NC(=O)[C@H]2CCC(=O)N2C2CCN(Cc3ccc(Cl)c(F)c3)CC2)c1` [Example 204], the inhibition at 1 µM stood at 80% and the affinity, expressed as Ki, was 299 nM.
Take `CNC(=O)c1cccc(NC(=O)[C@H]2CCC(=O)N2C2CCN(Cc3ccc(C)c(C)c3)CC2)c1` [Example 205]: the inhibition at 1 µM is 76% and the Ki stood at 247 nM.
For `CNC(=O)c1cccc(NC(=O)[C@H]2CCC(=O)N2C2CCN(Cc3ccc(Cl)s3)CC2)c1` [Example 206], in that order: 77% and 357 nM.
With `CNC(=O)c1cccc(NC(=O)[C@H]2CCC(=O)N2C2CCN(Cc3cc(Br)cs3)CC2)c1` [Example 207], the inhibition at 1 µM was found to be 75% and the Ki was 442 nM.
For `Cc1cc(CN2CCC(N3C(=O)N(C)C[C@H]3C(=O)Nc3cc(C4CC4)nn3C)CC2)ccc1Cl` [Example 209], the inhibition at 1 µM was determined as 95% and the inhibitory constant (Ki) was determined as 33 nM.
Take `Cc1cc(-c2nc[nH]n2)cc(NC(=O)C2CCC(=O)N2C2CCN(Cc3ccc(Cl)c(C)c3)CC2)n1` (stereo not shown) [Example 210]: the inhibition at 1 µM was 96%.
In turn, `Cc1cc(-c2nc[nH]n2)cc(NC(=O)[C@H]2CCC(=O)N2C2CCN(Cc3ccc(Cl)c(C)c3)CC2)n1` [Example 210] registered a Ki of 13 nM.
As for `Cc1cc(CN2CCC(N3C(=O)CC[C@@H]3C(=O)Nc3cc(-c4nc[nH]n4)ccn3)CC2)ccc1Cl` [Example 211], the inhibition at 1 µM was 93% and the Ki was determined as 48 nM.
The matching figures for `CCCCc1cc(C(=O)N(C)C)cc(NC(=O)C2CCC(=O)N2C2CCN(Cc3ccc(Cl)c(C)c3)CC2)n1` (stereo not shown) [Example 213]: 66% and 414 nM.
Take `Cc1cc(CN2CCC(N3C(=O)CC[C@@H]3C(=O)Nc3cc(C(=O)N(C)C)cc(C4CC4)n3)CC2)ccc1Cl` [Example 214]: the inhibition at 1 µM was found to be 101% and the Ki worked out at 2 nM.
